Measured values: US4565830A, “Method of ameliorating the subjective symptoms and objective signs in congestive heart failure” (priority 1981, dated 1986)
Where two headings read alike, the source gives them in different places.

Key:
[1] = system: patients with heart failure; format: in vivo, human patients; set-up: key to Severity After, Score: summed symptom/sign points; higher = worse heart failure; settings: for Severity After, Score / Severity After, NYHA: 2 g twice daily, granules
Protocol: Twenty-four patients with heart failure were administered every day, two doses containing 2 g each of taurine as granules, and then monitored. The underlying cause of heart failure and the combined therapeutic agents (+: combined, -: not combined) for each patient are shown in Table 2. The therapeutic agents combined with taurine were standard agents which have long been used. Most of the patients had not been improved or have been even worsened under the therapeutic agents in Table 2, prior to the new therapeutic modality of this invention being used. The severity of heart failure was expressed by NYHA Function Class (I to IV, mild to severe according to New York Heart Association) and a score based on observation of clinical symptoms and signs as shown in Table 3. The presence of a symptom or sign was given the point value indicated in the right column and the values for each of the symptoms and signs were summed up for the score. An increase in the score corresponds to a worsening in the patient's heart condition. […]

guinea pigs = settings: Dietrich & Diacono 1971; cited from earlier work
[2] = Acute toxicity in Wistar male mice; format: in vivo
Protocol: Each of 10 Wistar male mice, weighing 16-18 g, was administered with 7 g/kg of taurine (as an aqueous solution of 100 ml/kg).

[3] = 7 g/kg as aqueous solution 100 ml/kg, 7 days observation, route not given

Compound: NCCS(=O)(=O)O [taurine, 2-aminoethanesulfonic acid]
- adverse reaction ([1]; human, in vivo): without any adverse reaction
- Severity After, Score ([1]; patient 1, week 20, before 7.5, with digitalis): 2
- Severity After, NYHA ([1]; patient 1, week 20, before II, with digitalis): I
- Severity After, Score ([1]; patient 2, week 4, before 6.5, with digitalis, diuretics): 6.5
- Severity After, Score ([1]; patient 3, week 8, before 13, with digitalis, diuretics): 5
- Severity After, Score ([1]; patient 4, week 32, before 12, with digitalis, diuretics, vasodilators): 2.5
- Severity After, NYHA ([1]; patient 4, week 32, before III, with digitalis, diuretics, vasodilators): I
- Severity After, Score ([1]; patient 5, week 8, before 10, with digitalis, diuretics): 2.5
- Severity After, Score ([1]; patient 6, week 8, before 5, no combined agent): 2.5
- Severity After, Score ([1]; patient 7, week 8, before 6, with digitalis, diuretics): 3
- Severity After, Score ([1]; patient 8, week 4, before 6, with digitalis, diuretics): 5
- Severity After, Score ([1]; patient 9, week 4, before 4, no combined agent): 3
- Severity After, Score ([1]; patient 10, week 4, before 9.5, with diuretics, vasodilators): 5
- Severity After, Score ([1]; patient 11, week 6, before 9.5, with diuretics, vasodilators): 6
- Severity After, Score ([1]; patient 12, week 2, before 3.5, no combined agent): 3.5
- Severity After, Score ([1]; patient 13, week 2, before 8.5, with diuretics): 7.5
- Severity After, Score ([1]; patient 14, week 2, before 3.5, with diuretics): 3
- Severity After, Score ([1]; patient 15, week 4, before 4.5, with diuretics): 1
- Severity After, Score ([1]; patient 16, week 4, before 5, with digitalis, diuretics, vasodilators): 0.5
- Severity After, Score ([1]; patient 17, week 4, before 9, with digitalis, diuretics): 1
- Severity After, Score ([1]; patient 18, week 4, before 13, with digitalis, diuretics): 9
- Severity After, Score ([1]; patient 19, week 4, before 5.5, with digitalis, diuretics): 4.5
- Severity After, Score ([1]; patient 20, week 2, before 5, with diuretics): 3
- Severity After, Score ([1]; patient 21, week 4, before 9.5, combined agent ambiguous (none / diuretics)): 4
- Severity After, Score ([1]; patient 22, week 4, before 4.5, with diuretics): 3
- Severity After, Score ([1]; patient 23, week 4, before 5.5, no combined agent): 5.5
- Severity After, Score ([1]; patient 24, week 4, before 9, with digitalis, diuretics): 4
- improvement with combined use of taurine ([1]; patients not controllable or worsened under prolonged conventional agents): unexpectedly improved
- subjective symptoms and objective signs of heart failure ([1]; patients with heart failure, general statement): effectively ameliorates the subjective symptoms and objective signs of heart failure
- positive inotropic activity (guinea pigs): positive inotropic activity
- behavioral changes [2, 3]: nor behavioral changes
- death [2, 3]: neither death
- death and behavioral changes ([2]; intravenous, same results = neither death nor behavioral changes): the same results were obtained
